Experimental findings from ChEMBL document CHEMBL1158623, “In silico characterization of cytisinoids docked into an acetylcholine binding protein” (Bioorg Med Chem Lett, 2010) are described below.

The term IC50 denotes the point on the concentration scale where inhibition reaches its midpoint. Higher therefore signals a need for much substance.

In this experiment the target is Neuronal acetylcholine receptor; alpha4/beta2 (Rattus norvegicus, UniProt P09483+P12390). The experiment in a line: Displacement of [3H]epibatidine from rat alpha4beta2 nAChR. It is filed as protein-complex assay.
Chain of Neuronal acetylcholine receptor; alpha4/beta2 (P09483 whole entry): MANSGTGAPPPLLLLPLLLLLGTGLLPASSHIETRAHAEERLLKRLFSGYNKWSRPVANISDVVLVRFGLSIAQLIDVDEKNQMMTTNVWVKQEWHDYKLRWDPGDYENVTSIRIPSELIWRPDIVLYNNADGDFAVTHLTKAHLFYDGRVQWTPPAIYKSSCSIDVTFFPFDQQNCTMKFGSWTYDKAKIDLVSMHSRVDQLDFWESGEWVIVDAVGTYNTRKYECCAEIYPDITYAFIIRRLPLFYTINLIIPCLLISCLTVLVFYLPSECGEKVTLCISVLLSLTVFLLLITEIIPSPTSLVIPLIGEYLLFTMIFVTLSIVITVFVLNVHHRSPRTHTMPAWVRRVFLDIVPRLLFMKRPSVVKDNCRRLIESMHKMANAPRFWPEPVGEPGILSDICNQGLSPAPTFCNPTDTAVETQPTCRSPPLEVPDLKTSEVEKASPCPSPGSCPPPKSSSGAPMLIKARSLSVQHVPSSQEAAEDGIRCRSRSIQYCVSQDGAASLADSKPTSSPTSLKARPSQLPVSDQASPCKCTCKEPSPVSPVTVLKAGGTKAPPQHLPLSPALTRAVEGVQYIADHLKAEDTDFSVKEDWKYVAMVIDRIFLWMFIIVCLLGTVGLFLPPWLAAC
Chain of Neuronal acetylcholine receptor; alpha4/beta2 (P12390 whole entry): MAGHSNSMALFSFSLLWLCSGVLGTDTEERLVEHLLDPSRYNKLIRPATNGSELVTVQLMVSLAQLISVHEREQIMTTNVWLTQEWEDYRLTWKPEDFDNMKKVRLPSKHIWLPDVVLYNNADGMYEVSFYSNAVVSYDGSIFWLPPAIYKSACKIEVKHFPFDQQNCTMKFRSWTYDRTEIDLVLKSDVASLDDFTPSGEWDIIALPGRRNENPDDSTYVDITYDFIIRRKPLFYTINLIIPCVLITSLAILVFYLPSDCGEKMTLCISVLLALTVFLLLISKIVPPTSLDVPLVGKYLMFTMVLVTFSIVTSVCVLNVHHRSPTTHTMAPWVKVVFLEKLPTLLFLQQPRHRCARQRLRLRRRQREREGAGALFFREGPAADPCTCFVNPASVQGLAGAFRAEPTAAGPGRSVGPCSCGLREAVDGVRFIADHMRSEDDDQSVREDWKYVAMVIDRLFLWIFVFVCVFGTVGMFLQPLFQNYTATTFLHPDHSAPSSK
The molecule `O=c1c(I)ccc2n1C[C@@H]1CNC[C@H]2C1` showed an IC50 of 0.245 nM.

With `CN1C[C@@H]2C[C@H](C1)c1cccc(=O)n1C2`, the IC50 is 112 nM.

In turn, `O=c1c(Br)ccc2n1C[C@@H]1CNC[C@H]2C1` had a concentration for half-maximal inhibition (IC50) of 0.309 nM.

As to `O=c1c(Br)cc(Br)c2n1C[C@@H]1CNC[C@H]2C1`, the IC50 was 372 nM.

Molecule `O=c1ccc(Br)c2n1C[C@@H]1CNC[C@H]2C1` showed an IC50 of 457 nM.

For the molecule `CN1C[C@@H]2C[C@H](C1)c1ccc(Br)c(=O)n1C2`, the IC50 was 102 nM.

As to `O=c1cccc2n1C[C@@H]1CNC[C@H]2C1` [CYTISINICLINE], the IC50 was 69.2 nM.
